These results are taken from patent publication US11633484B2, “Method for improving the oral bioavailability of a drug” (PharmaCytics B.V., priority 2017, dated 2023).

The nature of series [1]: Determination of oral bioavailability of Abiraterone conjugates (plasma AUClast after oral gavage). It is filed as in vivo. On the set-up: key to AUClast (total amount abiraterone and conjugate): AUClast value for Zytiga; +: 1.1-6-fold increase compared to Zytiga; ++: >7-fold increase compared to Zytiga. To be noted: female Beagle dogs; for Conversion rate to Abiraterone: AUClast Abiraterone/AUClast conjugate + AUClast Abiraterone × 100%, oral 15 μmole/kg; for AUClast (total amount abiraterone and conjugate): single dose 15 μmole/kg by oral gavage, 24 h, fold increase compared to Zytiga. On the procedure: (§1) Relative and absolute bioavailability may be determined in different animal models and according to different protocols. The following protocol is typical for determining bioavailability in female Beagle dogs. The animals were deprived from food over a time period of 8 h prior to administration and 2 h after administration of the test molecules. Water was supplied without limitation.
(§2) On the study day, the animals received test molecules, at a single dose of 15 μmole/kg, by oral gavage, formulated in mixtures of propylene glycol, ethanol and 0.9% NaCl+5% mannitol in water. Blood samples were collected from the jugular vein on the following time points: 0.25, 0.5, 1, 2, 4, 8 and 24 hours after dosing.
(§3) Pharmacokinetic parameters were calculated from concentration versus time data using non-compartmental pharmacokinetic methods using Phoenix pharmacokinetic software. Data are compared to Zytiga to establish improvement of its oral bioavailability by the Abiraterone conjugates.

The conditions of series [2]: orally administered; cited from earlier work.
A further series concerns β-glucosidase. In words: Enzymatic removal of the glucose moiety (treatment with β-glucosidase), conversion to parent drug.
Series [3] is described as follows: Determination of oral bioavailability of Rotigotine conjugate. The class given is in vivo, Beagle dogs. On the set-up: key to AUClast (total amount Rotigotine and conjugate): AUClast value for Rotigotine; ++: >6-fold increase compared to Rotigotine. The conditions noted are these: for AUClast (total amount Rotigotine and conjugate): as Example 11 (Beagle dogs, oral gavage), fold increase compared to Rotigotine. The method, then:
as §1, §2, §3
In a similar fashion as described in Example 11, the bioavailability increase of Rotigotine conjugate 28 was determined.

Series [4] in a line: Determination of oral bioavailability of Kalydeco conjugates. On the set-up: key to AUClast (total amount Kalydeco and conjugate): AUClast value for Kalydeco; +: 1.1-6-fold increase compared to Kalydeco. To be noted: for AUClast (total amount Kalydeco and conjugate): as Example 11 (Beagle dogs, oral gavage), fold increase compared to Kalydeco. The class given is in vivo, Beagle dogs. The method, then: as §1, §2, §3
In a similar fashion as described in Example 11, the bioavailability increase of Kalydeco conjugate 17 was determined.

For series [5] the following is noted: oral application in rat; cited from earlier work.
For series [6] the following is noted: oral administration, rat; cited from earlier work.
For another series, the system named is xenograft mouse model. To be noted: oral administration; cited from earlier work.

Take `CCN(CO[C@H]1CC[C@@]2(C)C(=CCC3[C@@H]2CC[C@]2(C)C(c4cccnc4)=CC[C@@H]32)C1)C(=O)O[C@@H]1O[C@H](CO)C(O)[C@H](O)C1O` (stereo partly drawn) [Compound 7b]: in series [1], the “Conversion rate to Abiraterone” value was “++++ (>51%)”; the “AUClast (total amount abiraterone and conjugate)” value is listed as “+ (1.1-6-fold increase compared to Zytiga)”.

For `C[C@@H]1C[C@H]2[C@@H]3CCC4=CC(=O)C=C[C@]4(C)[C@@]3(F)[C@@H](O)C[C@]2(C)[C@@]1(O)C(=O)COC1O[C@H](CO)[C@@H](O)[C@H](O)[C@H]1O` (stereo partly drawn) [dexamethasone glucoside], the “Fraction of oral dose that reached the caecum as a free steroid” value in series [2] is reported as about 60%.

As to `CCCN(CO[C@H]1CC[C@@]2(C)C(=CCC3[C@@H]2CC[C@]2(C)C(c4cccnc4)=CC[C@@H]32)C1)C(=O)O[C@@H]1O[C@H](CO)C(O)[C@H](O)C1O` (stereo partly drawn) [Compound 7c], the “Conversion to Abiraterone and Kalydeco, respectively, upon treatment with β-glucosidase” value in the series with β-glucosidase was “readily converted”. In addition, in series [1], the “Conversion rate to Abiraterone” value is recorded as “+++ (41-50%)”; the “AUClast (total amount abiraterone and conjugate)” value was “++ (>7-fold increase compared to Zytiga)”.

As to `CCCN(COc1cccc2c1CC[C@H](N(CCC)CCc1cccs1)C2)C(=O)O[C@@H]1O[C@H](CO)[C@@H](O)[C@H](O)[C@H]1O` [Compound 28], the “Conversion rate to Rotigotine” value in series [3] (AUClast Rotigotine/(AUClast conjugate + AUClast Rotigotine) × 100%, as Example 11) is on record as “++++ (>51%)”. For the same compound, the “AUClast (total amount Rotigotine and conjugate)” value in series [3] is listed as “++ (>6-fold increase compared to Rotigotine)”.

For `CC(C)(C)c1cc(C(C)(C)C)c(NC(=O)c2c[nH]c3ccccc3c2=O)cc1O` [Kalydeco, reference compound], the “AUClast (total amount Kalydeco and conjugate)” value in series [4] is “o”.

Regarding `CCCN(COc1cc(NC(=O)c2c[nH]c3ccccc3c2=O)c(C(C)(C)C)cc1C(C)(C)C)C(=O)O[C@@H]1O[C@H](CO)[C@@H](O)[C@H](O)[C@H]1O` [Compound 17], the “Conversion rate to Kalydeco” value in series [4] (AUClast Kalydeco/AUClast conjugate + AUClast Kalydeco × 100%, as Example 11) was “++++ (>51%)”. In series [4], the “AUClast (total amount Kalydeco and conjugate)” value was “+ (1.1-6-fold increase compared to Kalydeco)”. Further, in the series on β-glucosidase, the “Conversion to Abiraterone and Kalydeco, respectively, upon treatment with β-glucosidase” value is reported as “readily converted”.

For `C[C@]12C=CC(=O)C=C1CC[C@@H]1[C@@H]2[C@@H](O)C[C@@]2(C)[C@H]1CC[C@]2(O)C(=O)CO[C@@H]1O[C@H](CO)[C@@H](O)[C@H](O)[C@H]1O` [prednisolone-21-O-β-D-glucoside], the “Increase of serum levels with respect to prednisolone” value in series [5] is given as “two-fold increase”.

Consider `CO[C@@H]1O[C@H](COC(=O)NC(N)=NC(=O)Cc2c(Cl)cccc2Cl)[C@@H](O)[C@H](O)[C@H]1O`, for which the “Relative Cmax compared to guanfacine” value in series [6] was “lower value”.

As to `CN(CO[C@H]1CC[C@@]2(C)C(=CCC3[C@@H]2CC[C@]2(C)C(c4cccnc4)=CC[C@@H]32)C1)C(=O)O[C@@H]1O[C@H](CO)C(O)[C@H](O)C1O` (stereo partly drawn) [Compound 7a], the “Conversion rate to Abiraterone” value in series [1] is “+++ (41-50%)”.

With `CN(CO[C@H]1CC[C@@]2(C)C(=CCC3[C@@H]2CC[C@]2(C)C(c4cccnc4)=CC[C@@H]32)C1)C(=O)O[C@@H]1O[C@H](CO)C(O)[C@H](O)C1O` (stereo partly drawn) [Compound 13], in series [1], the “Conversion rate to Abiraterone” value is on record as “++ (21-40%)”; the “AUClast (total amount abiraterone and conjugate)” value was “++ (>7-fold increase compared to Zytiga)”.

Consider `C=CCN(CO[C@H]1CC[C@@]2(C)C(=CCC3[C@@H]2CC[C@]2(C)C(c4cccnc4)=CC[C@@H]32)C1)C(=O)O[C@@H]1O[C@H](CO)C(O)[C@H](O)C1O` (stereo partly drawn) [Compound 7l], for which, in series [1], the “Conversion rate to Abiraterone” value is on record as “+++ (41-50%)”; the “AUClast (total amount abiraterone and conjugate)” value was “++ (>7-fold increase compared to Zytiga)”.

Take `CCCN(CCc1cccs1)[C@H]1CCc2c(O)cccc2C1` [Rotigotine, reference compound]: the “AUClast (total amount Rotigotine and conjugate)” value in series [3] is reported as “o”.

Regarding `COc1cc(C)c2cc(O)c(C)cc2c1C(C)C` [7-hydroxy-3-methoxy cadalene], the “Reduction of tumor volume” value in the series on xenograft mouse model was “did not show tumor volume reduction”.

Turning to `CC(=O)O[C@H]1CC[C@@]2(C)C(=CC[C@@H]3[C@@H]2CC[C@]2(C)C(c4cccnc4)=CC[C@@H]32)C1` [3-O-Acetate (Zytiga), reference compound], the “AUClast (total amount abiraterone and conjugate)” value in series [1] is “o”.

With `C[C@]12CC[C@H](O[C@@H]3O[C@H](CO)[C@@H](O)[C@H](O)[C@H]3O)CC1=CCC1[C@@H]2CC[C@]2(C)C(c3cccnc3)=CC[C@@H]12` (stereo partly drawn) [3-O-β-Glucoside (33), 3-O-β-D-Glucopyranosyl-abiraterone, reference compound], in series [1], the “Conversion rate to Abiraterone” value was “+ (1-20%)”; the “AUClast (total amount abiraterone and conjugate)” value is recorded as “+ (1.1-6-fold increase compared to Zytiga)”.

Take `C[C@]12CC[C@H](OCN(C(=O)O[C@@H]3O[C@H](CO)C(O)[C@H](O)C3O)C3CCC3)CC1=CCC1[C@@H]2CC[C@]2(C)C(c3cccnc3)=CC[C@@H]12` (stereo partly drawn) [Compound 7g]: in series [1], the “Conversion rate to Abiraterone” value is “++ (21-40%)”; the “AUClast (total amount abiraterone and conjugate)” value is on record as “++ (>7-fold increase compared to Zytiga)”.

For the compound `COc1cc(C)c2cc(O[C@@H]3O[C@H](CO)[C@@H](O)[C@H](O)[C@H]3O)c(C)cc2c1C(C)C`, the “Reduction of tumor volume” value with xenograft mouse model is listed as 50%.
